The results in this text go back to patent US20160263150A1, “TUNING BIOLOGICAL SYSTEM PROPERTIES FOR OPTIMIZED TREATMENT EFFICACY” (Baylor College of Medicine, priority 2015, published 2016).

Common to all, as to format: physicochemical
The nature of data set [1]: RF heating of kosmotropic materials in PBS (Example 2). Particulars: 342 mg/mL in PBS. Here is the method: Kosmotropic material solutions in phosphate buffered saline (PBS) were prepared using concentrated PBS to maintain equal ion concentration in all solutions. Kosmotropic materials (sucrose, maltose, trehalose, glycerol, propylene glycol, ethylene glycol) and all salts were obtained from Sigma-Aldrich in high purity (>98%) and used as received.
A variable power Kanzius External RF system (13.56 MHz) Generator System (ThermMed, LLC, Erie, Pa.) was used to heat aqueous solutions and tissue samples. A high-voltage RF field is generated in the 8 cm air gap between the transmitting and receiving heads of the RF-field generator. For aqueous experiments, samples were placed in a 1.3 mL quartz cuvette on a nonconducting Teflon holder mounted on an adjustable rotary stage at ambient temperature and open to air. […] Sample temperatures were recorded using an infrared camera (FLIR SC 6000, FLIR Systems, Inc., Boston, Mass.) approximately every 0.17 seconds. […] Heating rates were calculated by fitting a linear regression to the temperature versus time plot of each sample for the duration of RF exposure or only for the first five seconds of RF exposure. The latter methodology allows for the assumption that the dielectric properties remain approximately constant in the time frame analyzed, as discussed herein. […]

Data set [2] is described as follows: RF (13.56 MHz) heating rate of kosmotropic materials dissolved in PBS, 100 W. To be noted: 500 mg/m in PBS. Here is the method:
Sample temperature was measured using an infrared camera. The heating rates were calculated by a least-squares linear regression of the resultant temperature-time plot (FIG. 2B). Samples were heated from 23° C. to either 27° C. or for a duration of 60 seconds, whichever occurred first. Over this selected small temperature range, the variation of the temperature-dependence of dielectric properties was negligible.
The complex relative permittivity (∈′r and e″r) of all samples was measured over the frequency range of 10 MHz to 3 GHz (FIGS. 4A-B). From these measurements, the conductivity was obtained using the relationship σ=ω∈D∈″r. […]
Each of the materials listed in FIG. 5A were dissolved at 100, 250, and 500 mg/mL in phosphate buffered saline (PBS), a biologically iso-osmolar solution with similar conductivity (1.15 S/m) to blood and body tissues. […] RF heating rates and conductivity were measured according to the procedure described in Examples 1.1 and 1.2. […]
A variable power RF (13.56 MHz) Generator System (ThermMed, LLC, Erie, Pa.) was used to heat aqueous solutions. […] Sample temperatures were recorded using an infrared camera (FLIR SC 6000, FLIR Systems, Inc., Boston, Mass.) approximately every 0.17 s. […] Heating rates were calculated by fitting a linear regression to the temperature versus time plot of each sample for the duration of RF exposure.

Data set [3] in a line: RF heating rate and conductivity of bovine blood mixed with additives. To be noted: for effect of addition on blood conductivity and heating rate: 1-20% by weight in bovine blood; for additive content from which a significant increase in blood heating rate (p<0.005) was observed: by weight in bovine blood with 2-3% EDTA. Here is the method: In a similar study, various additives were added to bovine blood containing 2-3% ethylenediamine tetraacetic acid (EDTA) to prevent coagulation. The additives tested were propylene glycol, glycerol, pure water and normal saline at concentrations of 1-20% by weight.
A variable power RF (13.56 MHz) Generator System (ThermMed, LLC, Erie, Pa.) was used to heat aqueous solutions. A high-voltage RF field is generated in the 8 cm air gap between the transmitting and receiving heads of the RF field generator. For aqueous experiments, samples were placed in a 1.3 mL quartz cuvette on a non-conducting Teflon holder mounted on an adjustable rotary stage at ambient temperature and open to air. The cuvette was placed 8 mm from the transmitting head of the RF field generator and exposed to the high-voltage RF field at 100 or 900 W generator power. Sample temperatures were recorded using an infrared camera (FLIR SC 6000, FLIR Systems, Inc., Boston, Mass.) approximately every 0.17 s. At both 100 W and 900 W, samples were heated from ambient temperature (i.e., ˜23° C.) to 27° C. or for a duration of 60 seconds, whichever occurred first. Heating rates were calculated by fitting a linear regression to the temperature versus time plot of each sample for the duration of RF exposure.
Previous experiments involved conductivity modulation of PBS, a biologically relevant aqueous solution commonly used in laboratory settings. […] Blood samples contained 2-3% ethylenediamine tetraacetic acid (EDTA) to prevent coagulation. A number of additives, including water, normal saline, propylene glycol and glycerol were mixed with blood at increasing weight percent content (1-20%).

Data set [4] can be described thus: RF heating of neat ethanol and oils, 900 W.
Protocol: A variable power Kanzius External RF system (13.56 MHz) Generator System (ThermMed, LLC, Erie, Pa.) was used to heat aqueous solutions and tissue samples. A high-voltage RF field is generated in the 8 cm air gap between the transmitting and receiving heads of the RF-field generator. For aqueous experiments, samples were placed in a 1.3 mL quartz cuvette on a nonconducting Teflon holder mounted on an adjustable rotary stage at ambient temperature and open to air. The cuvette was placed 8 mm from the transmitting head of the RF-field generator and exposed to the high-voltage RF field at 900 W generator power. Sample temperatures were recorded using an infrared camera (FLIR SC 6000, FLIR Systems, Inc., Boston, Mass.) approximately every 0.17 seconds. Samples were heated from ambient temperature (i.e., ˜23° C. to ˜70° C. or for 120 seconds), whichever occurred first. Heating rates were calculated by fitting a linear regression to the temperature versus time plot of each sample for the duration of RF exposure or only for the first five seconds of RF exposure. The latter methodology allows for the assumption that the dielectric properties remain approximately constant in the time frame analyzed, as discussed herein.
Data set [5] in a line: RF-induced heating of m-/s-SWNT suspensions in NaCl solutions. To be noted: with 2% w/v Pluronic F108.
Protocol: Once characterized, these m-/s-SWNT samples were then exposed to a high-intensity (˜90 kV/m) 13.56 MHz RF electric field. […] Approximately 1.3 mL of each sample was placed in a cylindrical quartz cuvette (˜1 cm height by ˜1 cm diameter) and exposed to the RF field for 120 seconds or until the temperature reached 70° C. to prevent electrical arcing. Thermal imaging data was captured using an FLIR SC 600 infrared camera. Videos were also recorded simultaneously using a Nikon SLR camera. Once the samples had been exposed, the SWNTs were removed from solution using a 100 KDa filter to collect the supernatant, which was then re-exposed to the RF field. The differential heating rates determined heat production from the SWNTs themselves and not the Pluronic F108/NaCl background.
Using the highest SWNT concentration of 100 mg/L, Applicants then sought to investigate SWNT heating rates versus host medium conductivity, which was modulated using NaCl solutions. Aqueous NaCl solutions (all with 2% w/v Pluronic F108) across the molarity range 10^4 to 10^3 mM were combined with m-/s-SWNTs at a concentration of 100 mg/L. These were then exposed to the RF field and filtered to remove the supernatant, which was then re-exposed.

On to `OC[C@H]1O[C@H](O[C@H]2[C@H](O)[C@@H](O)C(O)O[C@@H]2CO)[C@H](O)[C@@H](O)[C@@H]1O` (mixture of isomers) [Maltose, maltose], for which the “PBS heating rate with kosmotropic material” value in data set [1] was 0.32±0.01 ° C./s.
In the case of `CC(O)CO` (stereo not drawn) [Propylene glycol, propylene glycol], the “increase of the heating rate of PBS” value in data set [2] is 490%. Moreover, in data set [3], the “effect of addition on blood conductivity and heating rate” value is “decrease in blood conductivity and increase in heating rate”; the “additive content from which a significant increase in blood heating rate (p<0.005) was observed” value is given as 5%.
Take `OCC(O)CO` [glycerol]: in data set [3], the “effect of addition on blood conductivity and heating rate” value is “decrease in blood conductivity and increase in heating rate”; the “additive content from which a significant increase in blood heating rate (p<0.005) was observed” value was 10%.
As to `OC[C@H]1O[C@H](O[C@H]2O[C@H](CO)[C@@H](O)[C@H](O)[C@H]2O)[C@H](O)[C@@H](O)[C@@H]1O` [trehalose], in data set [1], the “PBS heating rate with kosmotropic material” value came to 0.33±0.01 ° C./s.
As to `CCO` [ethanol], in data set [4], the “RF heating rate of neat material” value came out at 0.09 ° C./s.
As for `[Cl-].[Na+]` [NaCl], the “NaCl concentration at maximum heating” value in data set [5] is 5 mM.
